{"source": "patent US10640507B2", "about": "“PBD antibacterial agents” (KING'S COLLEGE LONDON, priority 2015, dated 2020)", "system": "A. baumannii - NCTC 17978", "assay": "Time kill kinetics", "format": "cell-based", "conditions": "drug at 4×MIC", "method": "1. Grow bacteria overnight.\n2. Subculture into an autoclaved conical flask containing 10 ml of TSB to an OD of 0.01 (˜1×10^7 Cfu/ml for KP-M6).\n4. Take aliquots (100 μl) at timepoints (0, 1, 2, 4, 6, 24 hours) and carry out a serial dilution in PBS (to remove drug and to dilute bacteria to countable numbers).\n5. Use the serial dilution to perform a Miles Misra—i.e. Add 3×10 μl spots of each dilution onto an agar plate. Incubate overnight and count colonies on spots in the morning.\n6. Control: Subculture bacteria alongside samples but with no antibiotic added. Take aliquots from this at every time point (0, 1, 2, 4, 6, 24 hours) and perform Miles Misra on these too (as detailed in points 4 and 5 above).\n7. After the first experiment, if the counts seen on Miles-Misra were zero, total viable counts were determined by spreading 200 μl in a streak down the centre of a TSB agar plate, waiting for the liquid to be absorbed and then spreading over the plate and checking for growth inhibition at the sight of the original streak.\n8. The compound is considered bactericidal if the inoculum was reduced >3 log10 CFU/ml and bacteriostatic if inoculum was reduced by 0-3 log10 CFU/ml.\nThree measurements were taken for each compound at each time point. These measurements were averaged and the standard deviation was also calculated."}
{"molecule": "O=C(O)c1cn(C2CC2)c2cc(N3CCNCC3)c(F)cc2c1=O", "note": "[CIP, ciprofloxacin, reference compound]", "values": [{"measurement": "Average (CFU/ml)", "setting": "time-point 1 hours", "result": 7000, "unit": "CFU/ml"}, {"measurement": "n = 1 (Log CFU/ml)", "setting": "time-point 1 hours", "result": 19000, "unit": "Log CFU/ml"}, {"measurement": "n = 2 (Log CFU/ml)", "setting": "time-point 1 hours", "result": 0, "unit": "Log CFU/ml"}, {"measurement": "Average (CFU/ml)", "setting": "time-point 2 hours", "result": 584, "unit": "CFU/ml"}, {"measurement": "n = 1 (Log CFU/ml)", "setting": "time-point 2 hours", "result": 1500, "unit": "Log CFU/ml"}, {"measurement": "n = 2 (Log CFU/ml)", "setting": "time-point 2 hours", "result": 0, "unit": "Log CFU/ml"}, {"measurement": "Average (CFU/ml)", "setting": "time-point 4 hours", "result": 10.7, "unit": "CFU/ml"}, {"measurement": "n = 1 (Log CFU/ml)", "setting": "time-point 4 hours", "result": 0, "unit": "Log CFU/ml"}, {"measurement": "n = 2 (Log CFU/ml)", "setting": "time-point 4 hours", "result": 30, "unit": "Log CFU/ml"}, {"measurement": "Average (CFU/ml)", "setting": "time-point 6 hours", "result": 0, "unit": "CFU/ml"}, {"measurement": "n = 1 (Log CFU/ml)", "setting": "time-point 6 hours", "result": 0, "unit": "Log CFU/ml"}, {"measurement": "n = 2 (Log CFU/ml)", "setting": "time-point 6 hours", "result": 0, "unit": "Log CFU/ml"}, {"measurement": "Average (CFU/ml)", "setting": "time-point 24 hours", "result": 4, "unit": "CFU/ml"}, {"measurement": "n = 1 (Log CFU/ml)", "setting": "time-point 24 hours", "result": 10, "unit": "Log CFU/ml"}, {"measurement": "n = 2 (Log CFU/ml)", "setting": "time-point 24 hours", "result": 0, "unit": "Log CFU/ml"}]}
